In one experiment the test system is S. aureus. Put plainly: Broth microdilution MIC determination, S. aureus. The format is cell-based, Staphylococcus aureus. As to conditions: minimum inhibitory concentration, recorded after 16 h, unit assumed.
The subject of experiment [1] is MRSA (ATCC 33591) methicillin-resistant Staphylococcus aureus. In words: Broth microdilution MIC determination, MRSA. The experiment is classed as cell-based. Particulars: minimum inhibitory concentration, MRSA ATCC 33591, Mueller-Hinton broth, 37° C., recorded after 16 h; unit assumed. Here is the method: (§1) Broth microdilution protocol for minimum inhibition concentration (MIC) determination. Fresh Mueller-Hinton broth (MHB) ˜3 ml, was inoculated (5×10^5 CFU mL^−1) with MRSA (ATCC 33591) methicillin-resistant Staphylococcus aureus. The resulting bacterial suspension was aliquoted (1 mL) into culture tubes and test compound (10 mM DMSO stock solution) was added to reach the final concentration of the interest. Bacteria not treated with the antimicrobial compound served as the control. Rows 2-12 of a 96-well microtiter plate were filled with remaining bacterial subcultures. The samples containing test compound were aliquoted (200 μL) into the first row wells of the microtiter plate (2 wells per compound). Row 1 wells were mixed 6-8 times and 100 μL was transferred down to row 2. Row 2 wells were mixed 6-8 times, followed by a 100 μL transfer from row 2 down to row 3. The rest of the rows of the plate were serially diluted in similar fashion. The plate was covered with sealing tape for 96-well plates (ThermoFisher) and incubated under stationary conditions at 37° C. A duplicate of the plate was prepared.
(§2) MIC values for vancomycin, linezolid, and tetracycline are included in Table 1 for purposes of comparison.
In general terms: In broth dilution the organism is exposed to a series of concentrations in liquid medium.

A further experiment has as its system A. baumannii. Put plainly: Broth microdilution MIC determination, A. baumannii. The experiment is classed as cell-based, Acinetobacter baumannii. Particulars: minimum inhibitory concentration, recorded after 16 h, unit assumed. Here is the method:
[The procedure below names another organism; the source lists this organism under the same test.] as §1, §2

Structures are written as SMILES. In brackets after ≈: the same amount, converted by molar mass. Where only a bound is given, the exact number is not on record here.

Consider `CCCCCCC/C(C)=C/C(=O)/C=C1\NC(=O)[C@H](CCCC)O1` [Compound 1, (S)-Lipoxazolidinone A], for which the MIC S. aureus in the experiment with S. aureus came to 1 µg/mL (≈ 3.11 µM). The molecule also had an MIC MRSA in experiment [1] of 0.5 µg/mL (≈ 1.56 µM). The molecule also registered an MIC A. baumannii with A. baumannii greater than 50 µg/mL.
In the experiment with S. aureus, `CCCCCCC/C(C)=C/C(=O)/C=C1\NC(=O)[C@@H](CCCC)O1` [Compound 2, (R)-Lipoxazolidinone A] had an MIC S. aureus of 4 µg/mL (≈ 12.4 µM). The MIC MRSA in experiment [1] amounted to 1 µg/mL (≈ 3.11 µM).
In turn, `CCCCCCC/C=C/C(=O)/C=C1\NC(=O)[C@H](CCCC)O1` [Compound 3, (S,E)-5-Butyl-2-((E)-2-oxoundec-3-en-1-ylidene)oxazolidin-4-one] had an MIC S. aureus in the experiment with S. aureus of 0.5 µg/mL (≈ 1.63 µM). In experiment [1], this molecule had an MIC MRSA of 0.125 µg/mL (≈ 0.407 µM). Also, the MIC A. baumannii in the experiment on A. baumannii is greater than 50 µg/mL.
In turn, `CCCCCCCCCC(=O)/C=C1\NC(=O)[C@H](CCCC)O1` [Compound 4, (S,E)-5-Butyl-2-(2-oxoundecylidene)oxazolidin-4-one] returned an MIC S. aureus against S. aureus of 2 µg/mL (≈ 6.46 µM). The same molecule returned an MIC MRSA in experiment [1] of 0.25 µg/mL (≈ 0.808 µM).
As to `CCCC[C@@H]1O/C(=C/C(=O)CCC)NC1=O` [Compound 5, (S,E)-5-Butyl-2-(2-oxopentylidene)oxazolidin-4-one], the MIC S. aureus in the experiment with S. aureus stood at 16 µg/mL (≈ 71 µM). Besides, the MIC MRSA in experiment [1] was 16 µg/mL (≈ 71 µM). The same molecule showed an MIC A. baumannii with A. baumannii greater than 50 µg/mL.
Consider `CCCC[C@@H]1O/C(=C/C(C)=O)NC1=O` [Compound 6, (S,E)-5-Butyl-2-(2-oxopropylidene)oxazolidin-4-one], for which the MIC S. aureus with S. aureus is 128 µg/mL (≈ 649 µM). For the same molecule, the MIC MRSA in experiment [1] is greater than 128 µg/mL.
On the same counts, the results for `CCCCCCCCCCCCCCCC(=O)/C=C1\NC(=O)[C@H](CCCC)O1` [Compound 7, (S,E)-5-Butyl-2-(2-oxoheptadecylidene)oxazolidin-4-one] are 128 µg/mL (≈ 325 µM) and 16 µg/mL (≈ 40.6 µM).
On the same counts, the results for `CCCCCCCCCC(=O)/C=C1\NC(=S)[C@H](CCCC)O1` [Compound 8, (S,E)-1-(5-butyl-4-thioxooxazolidin-2-ylidene)undecan-2-one] are 128 µg/mL (≈ 393 µM) and 64 µg/mL (≈ 197 µM).
For the molecule `CCCCCCCCCC(=O)/C=C1\NC(=O)[C@H](CC(C)C)O1` [Compound 9, (S,E)-5-isobutyl-2-(2-oxoundecylidene)oxazolidin-4-one], in the experiment with S. aureus, the MIC S. aureus worked out at 0.5 µg/mL (≈ 1.62 µM). The MIC MRSA in experiment [1] amounted to 0.0675 µg/mL (≈ 0.218 µM). The same molecule yielded an MIC A. baumannii in the experiment with A. baumannii greater than 128 µg/mL.
On the same counts, the results for `CCCCCCCCCC(=O)/C=C1\NC(=O)[C@H]([C@@H](C)CC)O1` [Compound 10, (S,E)-5-((S)-sec-butyl)-2-(2-oxoundecylidene)oxazolidin-4-one] are 0.5 µg/mL (≈ 1.62 µM), 0.0675 µg/mL (≈ 0.218 µM) and greater than 128 µg/mL.
On the same counts, the results for `CCCCCCCCCC(=O)/C=C1\NC(=O)[C@H](C(C)C)O1` [Compound 11, (S,E)-5-isopropyl-2-(2-oxoundecylidene)oxazolidin-4-one] are 0.5 µg/mL (≈ 1.69 µM), 0.0338 µg/mL (≈ 0.114 µM) and greater than 64 µg/mL.
`CCCCCCCCCC(=O)/C=C1\NC(=O)[C@H](Cc2ccccc2)O1` [Compound 12, (S,E)-5-benzyl-2-(2-oxoundecylidene)oxazolidin-4-one] showed an MIC S. aureus against S. aureus of 4 µg/mL (≈ 11.6 µM). This molecule yielded an MIC MRSA in experiment [1] of 0.5 µg/mL (≈ 1.46 µM).
On the same counts, the results for `CCCCCCCCCC(=O)/C=C1\NC(=O)CO1` [Compound 13, (E)-2-(2-Oxoundecylidene)oxazolidin-4-one] are 4 µg/mL (≈ 15.8 µM) and 2 µg/mL (≈ 7.89 µM).
As to `CCCCCCCCCC(=O)/C=C1\NC(=O)[C@H](C)O1` [Compound 14, (S,E)-5-Methyl-2-(2-oxoundecylidene)oxazolidin-4-one], the MIC S. aureus in the experiment with S. aureus was found to be 1 µg/mL (≈ 3.74 µM). Moreover, in experiment [1], the MIC MRSA is 0.8 µg/mL (≈ 2.99 µM).
As to `CCCCCCCCCC(=O)/C=C1\NC(=O)[C@H](c2ccccc2)O1` [Compound 15, (S,E)-2-(2-oxoundecylidene)-5-phenyloxazolidin-4-one], the MIC S. aureus in the experiment with S. aureus was found to be 2 µg/mL (≈ 6.07 µM). This molecule also gave an MIC MRSA in experiment [1] of 1 µg/mL (≈ 3.04 µM). Also, the MIC A. baumannii in the experiment on A. baumannii was greater than 128 µg/mL.
`CC(C)[C@@H]1O/C(=C/C(=O)Cc2ccccc2)NC1=O` [Compound 16, (S,E)-5-isopropyl-2-(2-oxo-3-phenylpropylidene)oxazolidin-4-one] came in with an MIC MRSA in experiment [1] of 2 µg/mL (≈ 7.71 µM).
`CC(C)[C@@H]1O/C(=C/C(=O)C(c2ccccc2)c2ccccc2)NC1=O` [Compound 17, (S,E)-5-isopropyl-2-(2-oxo-3,3-diphenylpropylidene)oxazolidin-4-one] had an MIC MRSA in experiment [1] of 0.5 µg/mL (≈ 1.49 µM).
On the same count and under the same terms, as for `COC(=O)CCCC(=O)/C=C1\NC(=O)[C@H](C(C)C)O1` [Compound 18, methyl (S,E)-6-(5-isopropyl-4-oxooxazolidin-2-ylidene)-5-oxohexanoate], the figure is 32 µg/mL (≈ 119 µM).
The same measure, in the same setting: as for `C#CCCCCC(=O)/C=C1\NC(=O)[C@H](C(C)C)O1` [Compound 19, (S,E)-5-isopropyl-2-(2-oxooct-7-yn-1-ylidene)oxazolidin-4-one], the figure is 16 µg/mL (≈ 64.2 µM).
Molecule `CC(=O)/C=C1\NC(=O)[C@H](C)O1` [Compound 20, (S,E)-5-methyl-2-(2-oxopropylidene)oxazolidin-4-one] returned an MIC S. aureus in the experiment with S. aureus greater than 128 µg/mL. This molecule also yielded an MIC MRSA in experiment [1] greater than 128 µg/mL.
The molecule `CCCCCCCCCC(=O)/C=C1\NC(=O)[C@H](C(C)(C)C)O1` [Compound 21, (S,E)-5-(tert-butyl)-2-(2-oxoundecylidene)oxazolidin-4-one] showed an MIC S. aureus in the experiment with S. aureus of 0.5 µg/mL (≈ 1.62 µM). Further, the MIC MRSA in experiment [1] was found to be 0.0675 µg/mL (≈ 0.218 µM).
On the same counts, the results for `CCCCCCCCCC(=O)/C=C1\NC(=O)[C@H](CC)O1` [Compound 22, (S,E)-5-ethyl-2-(2-oxoundecylidene)oxazolidin-4-one] are 2 µg/mL (≈ 7.11 µM) and 1 µg/mL (≈ 3.55 µM).
On the same counts, the results for `CC(C)[C@@H]1O/C(=C/C(=O)Cc2ccc(-c3ccccc3)cc2)NC1=O` [Compound 23, (S,E)-2-(3-([1,1′-biphenyl]-4-yl)-2-oxopropylidene)-5-isopropyloxazolidin-4-one] are 0.25 µg/mL (≈ 0.745 µM) and 0.125 µg/mL (≈ 0.373 µM).
On the same counts, the results for `CC(C)[C@@H]1O/C(=C/C(=O)Cc2ccc(Br)cc2)NC1=O` [Compound 24, (S,E)-2-(3-(4-bromophenyl)-2-oxopropylidene)-5-isopropyloxazolidin-4-one] are 1 µg/mL (≈ 2.96 µM) and 0.5 µg/mL (≈ 1.48 µM).
In the experiment on S. aureus, `CC(=O)NC[C@H]1CN(c2ccc(N3CCOCC3)c(F)c2)C(=O)O1` [linezolid, reference compound] had an MIC S. aureus of 0.5 µg/mL (≈ 1.48 µM). The molecule further gave an MIC MRSA in experiment [1] of 1 µg/mL (≈ 2.96 µM). Besides, in the experiment with A. baumannii, the MIC A. baumannii is greater than 100 µg/mL.
In the experiment on S. aureus, `CN(C)[C@@H]1C(O)=C(C(N)=O)C(=O)[C@@]2(O)C(O)=C3C(=O)c4c(O)cccc4[C@@](C)(O)[C@H]3C[C@@H]12` [tetracycline, reference compound] came in with an MIC S. aureus of 0.25 µg/mL (≈ 0.563 µM). Besides, the MIC A. baumannii in the experiment on A. baumannii turned out to be 2 µg/mL (≈ 4.5 µM).
`CN[C@H](CC(C)C)C(=O)N[C@H]1C(=O)N[C@@H](CC(N)=O)C(=O)N[C@H]2C(=O)N[C@H]3C(=O)N[C@H](C(=O)N[C@H](C(=O)O)c4cc(O)cc(O)c4-c4cc3ccc4O)[C@H](O)c3ccc(c(Cl)c3)Oc3cc2cc(c3O[C@@H]2O[C@H](CO)[C@@H](O)[C@H](O)[C@H]2O[C@H]2C[C@](C)(N)[C@H](O)[C@H](C)O2)Oc2ccc(cc2Cl)[C@H]1O` [vancomycin, reference compound] returned an MIC S. aureus in the experiment on S. aureus of 1 µg/mL (≈ 0.69 µM). In addition, the MIC MRSA in experiment [1] was 1 µg/mL (≈ 0.69 µM). Besides, the MIC A. baumannii in the experiment on A. baumannii is greater than 100 µg/mL.

(Values after patent US11673869B2, “4-oxazolidinone antimicrobial agents” (NORTH CAROLINA STATE UNIVERSITY, priority 2016, dated 2023).)
